Experimental data published in PubChem BioAssay (NCI).
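How tested: cells in 96-well plates exposed to compound for 48 hours at five concentrations. Definition used: TGI = concentration required for complete inhibition of growth.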

Columns and labels:
Assay in all cases: inhibition of tumour cell growth, NCI panel, 48 h
HOP-62 NSCLC = test system: HOP-62 NSCLC
HS 578T breast = test system: HS 578T breast
MALME-3M melanoma = test system: MALME-3M melanoma
MCF7 breast = test system: MCF7 breast
OVCAR-4 ovarian = test system: OVCAR-4 ovarian
OVCAR-8 ovarian = test system: OVCAR-8 ovarian
T-47D breast = test system: T-47D breast
UO-31 renal = test system: UO-31 renal

Compound | TGI (HOP-62 NSCLC) [µM] | TGI (HS 578T breast) [µM] | TGI (MALME-3M melanoma) [µM] | TGI (MCF7 breast) [µM] | TGI (OVCAR-4 ovarian) [µM] | TGI (OVCAR-8 ovarian) [µM] | TGI (T-47D breast) [µM] | TGI (UO-31 renal) [µM]
O=C(O)C1CSC2(CCCN(Cc3ccccc3)C2)N1 (centres undefined) | > 100 | > 100 | > 100 | > 100 | > 100 | > 100 | > 100 | > 100
Cc1nccn1S(=O)(=O)c1ccc(Cl)cc1 | > 100 | > 100 | > 100 | > 100 | > 100 | > 100 | > 100 | > 100
O=C(Cn1c(=O)oc2ccc(C(=O)c3cccc(Cl)c3)cc21)c1ccccc1 | > 100 | > 100 | > 100 | > 100 | > 100 | > 100 | > 100 | > 100
CCC(C)N1CN(c2ccccc2)C2(CCN(CCCC3(c4ccc(F)cc4)OCCO3)CC2)C1=O (centres undefined) | 27.6 | 14.2 | 9.5 | 7.58 | > 49.4 | 20.6 | 42.5 | 10.7
COc1ccc(/C=C2\OC(=O)C(Cl)=C2c2ccc(OC)c(Cl)c2)cc1 | 35.7 | 73.7 | 62.3 | 46.1 | 51.8 | 60.8 | > 100 | 48.2
Cc1cc(S(=O)(=O)Nc2n[nH]c(Nc3ccccc3)n2)c(SSc2cc(Cl)c(C)cc2S(=O)(=O)Nc2n[nH]c(Nc3ccccc3)n2)cc1Cl | > 100 | > 100 | > 100 | > 10 | > 100 | > 100 | > 100 | > 100
Nc1c(C(=O)O)nnc2cc(Cl)ccc12 | > 100 | > 100 | > 100 | > 100 | > 100 | > 100 | > 100 | > 100
CC1=NN(c2nc(N)nc(-c3cc4ccccc4oc3=N)n2)C(C)(C)C1 | 37.2 | 48.1 | 32.2 | > 100 | 31.2 | 53 | 34.3 | 37.4
COC(=O)/C=C\C(C#N)(C#N)N=Cc1ccc(Br)cc1 | 33.4 | 49.7 | 12.4 | 17.1 | 23.7 | 21.5 | 14 | 15.8
COC(=O)C(CNC(=O)/C=C/c1ccc(OC(C)=O)c(OC(C)=O)c1)NC(=O)/C=C/c1ccc(OC(C)=O)c(OC(C)=O)c1 (centres undefined) | > 100 | > 100 | > 100 | > 100 | > 100 | > 100 | > 100 | > 100
CC(C)=C=CP(=O)(O)c1ccccc1 | > 100 | > 100 | > 100 | > 100 | > 100 | > 100 | > 100 | 
COc1cc2nc(-c3cccs3)nc(N3C(c4cc(OC)c(OC)c(OC)c4)=NNC(=O)c4ccccc43)c2cc1OC | > 100 | > 100 | 45 | > 100 | 42.1 | > 100 | > 100 | > 100
Nc1ccn(CC(O)c2cc3ccccc3[nH]2)c(=O)n1 (centres undefined) | > 100 | > 100 | > 100 | > 100 | > 100 | > 100 | > 100 | > 100
CCOC(=O)C1CCCN1C(=O)c1ccccc1Cl (centres undefined) | > 100 | > 100 | > 100 | > 100 |  | > 100 | > 100 | > 100
Cc1cc(O)c(C(C)C)cc1C(=S)Nc1ccc(Cl)cc1 | 32.9 | 28.9 | 21.9 | 22.9 | 20.2 | 24.2 | 29.2 | 
CC(C)OP(=O)(OC(C)C)/C(C#N)=C/c1c[nH]c2ccccc12 | > 100 | > 100 | > 100 | > 100 | > 100 | > 100 | > 100 | 
CCCCCCCCCCOc1ccc(N=Nc2nnc(-c3ccc(OCCCCC)cc3)s2)cc1 | > 100 | > 100 | > 100 | > 100 | > 100 | > 100 | > 100 | 
COc1ccc(C2NC(N)=C(C#N)C3=C2C(C)CCC3)cc1OC (centres undefined) | 75.7 | > 100 | > 100 | > 100 |  | > 100 | > 100 | > 100
CC1=NN2CCC(=O)N=C2S1 | > 100 | > 100 | > 100 | > 100 | > 100 | > 100 | > 100 | 
NC(=S)NS(=O)(=O)c1ccc(Cl)cc1 | > 100 | > 100 | > 100 | > 100 | > 100 | > 100 | > 100 | 
CCOC(=O)CCC(NC(=O)c1ccc(Nc2nc3ccccc3nc2C(=O)OCC)s1)C(=O)OCC (centres undefined) |  | > 100 | > 100 | > 100 | > 100 | > 100 | > 100 | > 100
